For 15 compounds, AC50, Activity and IC50 results are on record in ChEMBL document CHEMBL1143042, “Isolation and syntheses of polymethoxyflavones and hydroxylated polymethoxyflavones as inhibitors of HL-60 cell lines” (Bioorg Med Chem, 2007).

Holding throughout (assay type): functional, cell-based
Assay [1] has as its system HL-60. The assay is described as follows: Apoptotic activity in HL60 cells after 24 hrs. The conditions noted are these: Homo sapiens, HL-60, 24 h.
The next assay concerns PMN. The assay is described as follows: Cytotoxicity against human PMN cells at 100 uM.
Assay [2] concerns HL-60. Nature of the assay: Antiproliferative activity against HL60 after 24 hrs. The conditions noted are these: Homo sapiens, HL-60, 24 h.

Structures are written as SMILES. Active and inactive are the calls of the source. No cut-off for these calls is given here.

The term AC50 denotes the concentration at which the activity in the assay is half-maximal. A word on the IC50: it is the concentration that gives 50% inhibition. Higher therefore signals weaker potency. `COc1ccc(-c2oc3c(OC)c(OC)c(OC)c(O)c3c(=O)c2OC)cc1OC`: the AC50 in the assay with HL-60 [1] was determined as 5.9 µM. The outcome with PMN was inactive. Also, 4.16 µM corresponded to half-maximal inhibition with HL-60 [2] (IC50).
The corresponding values for `COc1ccc(-c2oc3cc(OC)c(OC)c(O)c3c(=O)c2OC)cc1OC` [ARTEMETIN] are 7.26 µM, “inactive” and 6.44 µM.
In the assay on HL-60 [1], `COc1cc(-c2cc(=O)c3c(OC)c(OC)c(OC)c(OC)c3o2)ccc1O` yielded a half-maximal activity concentration (AC50) of 87.1 µM. Moreover, in the assay with PMN, the outcome was inactive. This compound also registered an IC50 in the assay with HL-60 [2] of 47.4 µM.
The like results for `COc1ccc(-c2cc(=O)c3c(OC)c(OC)c(OC)c(OC)c3o2)cc1` [TANGERETIN] were, in that order, above 100 µM, “inactive” and above 100 µM.
For `COc1ccc(-c2cc(=O)c3c(O)c(OC)c(OC)cc3o2)cc1OC`, the AC50 in the assay on HL-60 [1] is above 100 µM. In addition, the outcome in the assay with PMN was inactive. This compound returned an IC50 with HL-60 [2] above 100 µM.
Compound `COc1ccc(-c2oc3c(OC)c(OC)c(OC)c(OC)c3c(=O)c2OC)cc1OC` [3,5,6,7,8,3',4'-HEPTAMETHOXYFLAVONE] returned an AC50 with HL-60 [1] of 33.9 µM. Besides, the outcome in the assay with PMN was inactive. In the assay with HL-60 [2], this compound showed a concentration for half-maximal inhibition (IC50) of 13.3 µM.
As to `COc1ccc(-c2cc(=O)c3c(OC)c(OC)c(OC)c(OC)c3o2)cc1OC` [NOBILETIN], the AC50 in the assay with HL-60 [1] is above 100 µM. In addition, the result in the assay with PMN was inactive. This compound came in with a half-inhibitory concentration (IC50) with HL-60 [2] of 41.5 µM.
For the compound `COc1ccc(-c2cc(=O)c3c(O)c(OC)c(OC)c(OC)c3o2)cc1OC` [5-DEMETHYLNOBILETIN], in the assay on HL-60 [1], the activity was half-maximal at 5.87 µM (AC50). In the assay with PMN, the outcome was inactive. In the assay on HL-60 [2], this compound gave an IC50 of 2.07 µM.
`COc1ccc(-c2cc(=O)c3c(OC)c(OC)c(OC)cc3o2)cc1OC` [SINENSETIN]: in the assay with HL-60 [1], the AC50 is above 100 µM. In addition, in the assay on PMN, the result was inactive. This compound also had an IC50 in the assay on HL-60 [2] above 100 µM.
For the compound `COc1ccc(-c2cc(=O)c3c(O)c(OC)c(OC)c(OC)c3o2)cc1` [GARDENIN B], the half-maximal activity concentration (AC50) in the assay with HL-60 [1] was above 100 µM. Also, the result with PMN was inactive. This compound came in with an IC50 in the assay on HL-60 [2] above 100 µM.
For the compound `COc1cc(-c2cc(=O)c3c(O)c(OC)c(OC)c(OC)c3o2)cc(OC)c1OC` [GARDENIN], in the assay with HL-60 [1], the AC50 was above 100 µM. Further, the result in the assay on PMN was inactive. The IC50 in the assay with HL-60 [2] is above 100 µM.
Compound `COc1ccc(-c2oc3c(OC)c(OC)c(OC)c(OC)c3c(=O)c2O)cc1OC` [NATSUDAIDAI] displayed an AC50 with HL-60 [1] of 56.5 µM. Moreover, the outcome with PMN was inactive. The IC50 with HL-60 [2] was above 100 µM.
In turn, `COc1ccc(-c2cc(=O)c3c(OC)c(OC)c(OC)c(OC)c3o2)cc1O` returned an AC50 in the assay on HL-60 [1] of 94.6 µM. Besides, the outcome in the assay on PMN was inactive. The same compound registered an IC50 in the assay with HL-60 [2] of 52.7 µM.
`COc1c(OC)c(OC)c2c(=O)cc(-c3ccc(O)c(O)c3)oc2c1OC` had a half-maximal activity concentration (AC50) in the assay with HL-60 [1] above 100 µM. In the assay with PMN, the outcome was inactive. Moreover, the half-inhibitory concentration (IC50) in the assay with HL-60 [2] turned out to be 71.2 µM.
The corresponding values for `COc1ccc(-c2oc3cc(OC)c(OC)c(OC)c3c(=O)c2OC)cc1OC` [HEXAMETHOXYFLAVONE] are 92.1 µM, “inactive” and 20.6 µM.
